Test results as given in article PMC10747733, “N-Substituted 2-(Benzenosulfonyl)-1-Carbotioamide Derivatives Exert Antimicrobial and Cytotoxic Effects via Aldehyde Dehydrogenase Pathway: Synthesis, In Silico and In Vitro Studies” (Pharmaceuticals, 2023).
≈ marks a conversion by molar mass, not a printed value.

Tested on: Gram-negative bacteria
Assay: Broth microdilution, summary over reference Gram-negative bacteria
Format: cell-based
Source text: Reference strains of microorganisms that came from American Type Culture Collection (ATCC) (Manassas, VA, USA) were used for this study. The representative Gram-positive bacteria were as follows: Staphylococcus aureus ATCC 25923, Staphylococcus aureus ATCC 29213, Staphylococcus aureus ATCC 43300, Staphylococcus epidermidis ATCC 12228, Enterococcus faecalis ATCC 29212, Micrococcus luteus ATCC 10240, Bacillus subtilis ATCC 6633 and Bacillus cereus ATCC 10876. […]
The new compounds WZ1–WZ4 were assayed for both antibacterial and antifungal activity using the broth microdilution method in accordance with the European Committee on Antimicrobial Susceptibility Testing (EUCAST) and Clinical and Laboratory Standards Institute (CLSI) guidelines. […] The antimicrobial effect of compounds WZ1–WZ4 was determined in the concentration range from 2000 to 0.98 µg/mL.
Then, the microbial suspensions were introduced into each well of the microplate and incubated for 18–24 h at 35 °C. […] Next, the values of the minimum bactericidal concentration (MBC) and minimum fungicidal concentration (MFC) of WZ1–WZ4 were assessed. […] The lowest concentrations of compounds without microbial growth were read as MBC or MFC. […]

**Q.** Which results are given for CCCCCCNC(=S)NNS(=O)(=O)c1ccccc1 [WZ3, 2-(Benzenesulfonyl)-N-Hexylhydrazine-1-Carbothioamide]?
**A.** MIC (Gram-negative rods from Enterobacterales and Pseudomonas aeruginosa): 500 to 1000 µg/mL (≈ 1.58 to 3.17 mM); MIC (remaining Gram-negative bacteria (other than B. bronchiseptica and E. coli)): 1000 µg/mL (≈ 3.17 mM)
